Results on 13 compounds are retold here after PubChem BioAssay (NCI).

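Grown in 96-well plates, cells were treated for 48 hours with each compound at five concentrations. Insufficient inhibition: endpoint recorded as highest concentration tested. Here, GI50 denotes the concentration required for 50% inhibition of growth. TGI marks complete inhibition of growth.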

Common to all, as to assay: NCI anticancer screen, dose series, 48 h
For test [1], the system named is SK-MEL-2 melanoma.
The test system of test [2] is HCT-116 colon.
For test [3], the system named is A498 renal.
The subject of test [4] is IGROV1 ovarian.
The subject of test [5] is K-562 leukemia.
In test [6] the test system is NCI-H226 lung.
For test [7], the system named is A549 NSCLC.
In test [8] the test system is UACC-62 melanoma.
The subject of test [9] is T-47D breast.
Test [10] relates to HS 578T breast.

Consider `CO/C=C(\Br)c1ccc2c(c1)OCO2`, for which the TGI in [1], in test [2], in test [3], in test [4], in test [5] and in test [6] was > 100 µM each time. For the same compound, the TGI in [7] and in test [8] was > 100 µM throughout.

Turning to `C[C@]12CCc3nonc3C1CC[C@@H]1C2CC[C@@]2(C)C1CC[C@@H]2O` (some centres undefined), the TGI in test [1], in [3], in test [4], in test [5], in test [6] and in test [7] was > 100 µM in each case. Besides, the TGI in test [8] was > 100 µM.

In the case of `CCN(CC)CCCNc1n[n+]([O-])c2ccccc2[n+]1[O-]`, the TGI in test [1] came to 21.5 µM; in test [2] it was 57.3 µM; in test [3], 16.6 µM; in test [9], 68.1 µM; in [4], 24.2 µM; in [5], 76.1 µM. Moreover, the results for the TGI in test [6], in test [7] and in test [8] were 85.6 µM, 39.7 µM and 26 µM, respectively.

Regarding `Cc1nc2ccccc2c(/C=C/c2ccccc2)c1C(=O)/C=C/c1ccc(C(F)(F)F)cc1`, the GI50 was 1.87 µM in test [1]; 0.226 µM in [2]; 1.75 µM in test [3]; 1.18 µM in test [9]; 0.414 µM in [4]; 0.775 µM in [5]. Besides, the GI50 in test [6] is 1.73 µM; in test [7] it was 2.03 µM; in test [8] it was 1.48 µM. Moreover, the TGI was 3.95 µM in test [1]; 1.16 µM in [2]; 3.18 µM in test [3]; 3.88 µM in test [9]; 2.02 µM in test [4]; > 100 µM in test [5]. The TGI in test [6] was found to be 3.67 µM; in test [7], 4.84 µM; in test [8], 2.93 µM.

For `CCCCCCCC(=O)OCC1OC(n2cc(F)c(=O)[nH]c2=O)C(N)C(O)C1O` (centres undefined), the TGI in test [1], in test [2], in [3], in [4], in [5] and in test [6] was > 100 µM throughout. Besides, the TGI in test [7] and in test [8] was > 100 µM in each case.

For the compound `N#CC1(N2CCCC2)CCC2(CC1)OCCO2`, the TGI in test [1], in test [2], in test [3], in [4], in test [5] and in test [6] was > 100 µM in each case. Also, the TGI in [7] and in test [8] was > 100 µM throughout.

Regarding `CC(=O)[CH-]C(C)=O.CC(=O)[CH-]C(C)=O.[Cl-].[O]=[V]`, the GI50 in test [1] is 26.8 µM; in [2] it was 19.1 µM; in test [4], 11.1 µM; in test [6], 27.5 µM; in [7], 36.3 µM; in [8], 20 µM. Further, the TGI in test [1] was 77.1 µM; in test [2] it was 48.3 µM; in test [4], 64.2 µM; in [6], 76.1 µM; in test [7], > 100 µM; in test [8] it was 59.1 µM.

With `COc1cc2c(c(OC)c1OC)-c1c(c3ccc([N+](=O)[O-])cc3c(=O)n1CCCBr)C2=O`, the GI50 in test [1] was > 100 µM; in test [2], 18.7 µM; in test [3], > 100 µM; in test [10] it was 67.9 µM; in [5], 38.8 µM; in test [6], 13.5 µM. The GI50 is 62.8 µM in test [7] and 23.8 µM in test [8]. Moreover, the TGI in [1] is > 100 µM; in test [2], > 100 µM; in [3] it was > 100 µM; in test [10], > 100 µM; in test [5] it was > 100 µM; in test [6], 68.5 µM. Also, the TGI was > 100 µM in [7] and 90.1 µM in test [8].

On to `CCOC(=O)CNC(=O)OCc1ccccc1`, for which the TGI in test [1], in test [2], in test [3], in test [4], in test [5] and in test [7] was > 100 µM each time. Moreover, the TGI in test [8] was > 100 µM.

With `COc1cc(/C=C2\NC(=O)C3Cc4c(OC)c(C)c(OC)c(OC)c4C2N3C)c(OC)c(C)c1OC` (centres undefined), the TGI in test [2], in [3], in test [4], in test [5], in test [6] and in [7] was > 100 µM each time. In addition, in [8], the TGI is > 100 µM.

`N#CC(C(=O)CCC(=O)Nc1cccc(C(F)(F)F)c1)c1ccccc1` (centres undefined): the TGI in test [1], in test [2], in test [3], in test [4], in test [5] and in test [6] was > 100 µM each time. Besides, the TGI in test [7] and in test [8] was > 100 µM throughout.

Regarding `CCOC(=O)Nc1ccc2c(c1)C(=O)N(CC)c1ccccc1O2`, the GI50 in test [1] was 0.102 µM; in test [2], 0.0829 µM; in test [3], 0.0786 µM; in test [10], 0.117 µM; in test [4], 0.265 µM; in test [5], 0.0484 µM. In addition, the GI50 was 0.796 µM in [6], 0.145 µM in [7] and 0.101 µM in [8]. For the same compound, the TGI in [1] is > 100 µM; in [2], > 100 µM; in [3], 11.8 µM; in test [10] it was > 100 µM; in test [4], > 100 µM; in test [5], > 100 µM. Further, the TGI in [6], in [7] and in test [8] was > 100 µM each time.

On to `Cc1ccc(/C=N/NS(=O)(=O)c2ccccc2)cc1C`, for which the TGI in test [1], in test [2], in test [3], in [4], in test [5] and in [6] was > 100 µM in each case. Further, the TGI in test [7] and in test [8] was > 100 µM throughout.
